The assay deals with Acute Musculoskeletal Pain. The assay can be described thus: Randomized active controlled study of BSC-4 in adult patients with acute musculoskeletal pain (NRS, PRS, PPR, MPR, PGIC). Format: in vivo, human. The source says: A Randomized Active Controlled Study to Assess the Efficacy of Sesame Oil Loaded with Boswellia Extract and Curcuminoid Composition (BSC-4) in Adult Patients with Acute Musculoskeletal Pain. Sample size for the study: 88 Subjects were randomized with 1:1 ratio of male and female in each group. Subject selection—Subjects were selected from the screening site who were ready to give a voluntary informed consent and who meets study inclusion criteria. • 1. Adult patient, Male or female between 18-65 years of age. • 2. A score of 5 or above on the Numerical Rating Scale. • 3. Patients having acute musculoskeletal pain which occurred within 24 hours before presentation e.g. headache musculoskeletal injuries, myalgia, neck pain, limb pain, low back pain, joint pain, widespread musculoskeletal pain, painful uncomplicated acute soft tissue injury of the upper or lower extremity, including acute injuries of ligaments, tendons, or muscles (including Grade 1), not requiring admittance to hospital. • 4. Willing to give voluntary informed consent. Visit 1, randomization; subject were provided BSC-4 or Paracetamol as per the pre-documented randomization list accessed only by pharmacist. Patients were entering the NRS, PRS, and PGIC in the diary before and after 2 hour of taking the dose. Follow up calls were made over phone for patents compliance to treatment, diary completion. The follow up on day 3 the patient were reminded to bring the diary for review and bottle for IP accountability at the next visit. Visit 2, Physical examination, vitals, and patient diary were checked. Post dose (2 hours) pain intensity using NRS, pain relief using categorical PRS, and patient's global impression of change (PGIC) were recoded. Visit 3, next visit on 6th day from the visit 1, Patients entered the NRS, PRS, and PGIC in the diary before and after 2 hrs of taking the dose. Follow up calls were made over phone for their compliance to treatment, diary completion. The follow up on day 6 the patient were reminded to bring the diary for review and bottle for IP accountability at the next visit. Physical examination, vitals, and patient diary were checked. Post dose (2 hours) pain intensity using NRS, pain relief using categorical PRS, and patient's global impression of change (PGIC) were recorded. The NRS is an 11-point scales in which 0 represents ‘no pain’ and 10 represents the worst pain possible. The patient were asked to rate their pain intensity as a number from 0 to 10. Alternatively, for better conception it may be explained as below. The NRS were recorded on screening and those patients who have 5 or above score only were enrolled into the study. After the first dose the patient were give the pain intensity rating every 30 minutes up to 6 hours post dose for calculating SPID 6 hrs. The NRS was included in the diary and the patient was required to give the pain intensity every morning before taking the dose and 2 hrs after dose until the end of the study. The average of the recorded data is provided in a graphical form in FIG. 7 (b). The average percentage change of patents when they visited the centre on day 3 and day 7 is provided below. The pain relief scale is a categorical scale having a positive progression from ‘No relief’ to ‘complete relief’. After the first dose the patient rated the pain relief every 30 minutes up to 6 hours for the assessment of Total pain relief 6 hours. The average pain relief score for the 6 hours test was recorded and represented in graphical form in FIG. 8 (a). The pain relief scale was included in the diary and the patient was required to give the pain relief every morning before taking the dose and 2 hours after dose until the end of the study. The average pain relief score for the seven days test was recorded in diary and represented in graphical form in FIG. 8 (b). After dosing the two stop watches were given to the patient. The patient had to stop one of the watches when they felt relief from pain. […]

Consider `CC(=O)Nc1ccc(O)cc1` [Paracetamol], for which, for the setting “FIG. 7(a), 0-10 scale, baseline around 6”, the “NRS score in six hours” value turned out to be 2. For the same molecule, under “FIG. 7(b), 0-10 scale, baseline close to 6”, the “NRS score by the end of 7th day” value is recorded as about 1. In addition, where the note is “FIG. 8(a), scale 1 No Relief to 5 Complete Relief, baseline around 1”, the “PRS score in six hours” value came to 3. The “PRS score by the end of 7th day” value (FIG. 8(b), scale 1-5, baseline close to 1) was about 3. Moreover, where the note is “NRS, 6 hours after first dose”, the “Percentage change in pain intensity at 6 hours” value is reported as 72.1%. Besides, the “Percentage change in pain intensity in 7 days, day 3” value (NRS, day 3) turned out to be 24.8%. Besides, under “NRS, day 7”, the “Percentage change in pain intensity in 7 days, day 7” value worked out at 83.62%. In addition, where the note is “PRS, 6 hours after first dose, threshold reached by the n patients in the same cell”, the “Percentage change in pain relief at 6 hours” value was over 75%. In addition, the “Number of patients (n) with the stated percentage change in pain relief at 6 hours” value (PRS, 6 hours, of n = 44 per group, >75% change) came to 30. Besides, the “Number of patients (n) with the stated percentage change in pain relief, Day 3” value (PRS, Day 3, of n = 44 per group, >50% change) is on record as 20. For the same molecule, the “Percentage change in pain relief, Day 3” value (PRS, Day 3, threshold reached by the n patients in the same cell) is listed as over 50%. Further, under “PRS, Day 7, of n = 44 per group, >75% change”, the “Number of patients (n) with the stated percentage change in pain relief, Day 7” value amounted to 37. Moreover, the “Percentage change in pain relief, Day 7” value (PRS, Day 7, threshold reached by the n patients in the same cell) is over 75%. Further, the “Meaningful pain relief” value (average time to meaningful pain relief (MPR), censored at 6 hours) came out at 4.51 h. Besides, the “Perceptible pain relief” value (average time to perceptible pain relief (PPR), stop watch) amounted to 2.62 h. Also, the “PGIC score, Day 2” value (scale 1 Very Much Improved to 7 Very Much Worse, Day 2) amounted to 3. Also, the “PGIC score, Day 3” value (scale 1 Very Much Improved to 7 Very Much Worse, Day 3) is given as 3. Also, the “PGIC score, Day 4” value (scale 1 Very Much Improved to 7 Very Much Worse, Day 4) is given as 3. Also, where the note is “scale 1 Very Much Improved to 7 Very Much Worse, Day 5”, the “PGIC score, Day 5” value is 3. Further, the “PGIC score, Day 6” value (scale 1 Very Much Improved to 7 Very Much Worse, Day 6) was 3. Further, the “PGIC score, Day 7” value (scale 1 Very Much Improved to 7 Very Much Worse, Day 7) was determined as 2.

The record behind these values is patent US12527833B2, “Pharmaceutical composition made from hydrophobic phytochemicals dispersed in sesame oil to enhance bioactivity” (ARJUNA NATURAL PVT. LTD., priority 2017, dated 2026).
